The subject of this test is segments of the rat thoracic aorta (RTA). In words: Vasoactivity (isometric tension) of rat thoracic aorta rings in tissue bath.

Turning to `COc1ccc([C@@H]2Sc3ccccc3N(CCN(C)C)C(=O)[C@@H]2OC(C)=O)cc1` [DLT, Diltiazam], the “vasoconstriction with HES + PHE” value (HES 4.4 uM + PHE, DLT 10^-7 to 10^-5 M (FIG. 8, a2-d2)) is recorded as “the vasoconstriction is reduced”. In addition, the “effect on PHE induced vasoconstriction” value (PHE without hemoglobin, different concentrations of additive (DLT 10^-7 to 10^-5 M)) is on record as “reduces the vasoconstrictive effect of PHE”.

On to `CNC[C@H](O)c1cccc(O)c1` [PHE, Phenylephrine], for which, where the note is “PHE added after SFH, preliminary experiments”, the “tension of the RTA” value is on record as “increase the tension of the RTA significantly”.

Turning to `COc1cc2nc(N3CCN(C(=O)C4CCCO4)CC3)nc(N)c2cc1OC` (stereo not shown) [TER, Terazosin], the “vasoconstrictive effect of SFH” value (terazosin suboptimal 10^-8 M, SFH+PHE (FIG. 9)) is recorded as “reduces the vasoconstrictive effect of SFH”.
